Assay results reported in patent US20250177352A1, “COMBINATION TREATMENT FOR CANCER” (LAEKNA LIMITED, priority 2022, published 2025).

Tests used:
solid tumors = conditions: literature values of approved antibodies; cited from earlier work
MBT-2 cells = test: Proliferation assay of mouse cancer cell lines (CellTiter-Lumi, ATP); assay type: cell-based; conditions: afuresertib 0.0001-10 μM, 3 days, FIG. 1
Procedure: The cell lines were obtained from Cobioer Biosciences Co. Ltd., Nanjing, China. 1,000 to 2,000 cells were seeded into 96-well plate, and induced with various concentrations of afuresertib (0.0001-10 μM) for 3 days at 37° C. with 5% CO2. The number of viable cells in culture was determined based on quantitation of the amount of ATP following the manufacturer's instructions (CellTiter-Lumi Kit, Beyotime).

Akt (protein kinase B) = conditions: reversible, ATP-competitive; stated as known; cited from earlier work
mTNBC = conditions: historical control for mTNBC patients with PD-L1 negative status; cited from earlier work

Compound | ORR, Phase I studies in solid tumors (solid tumors) [%] | other results
Atezolizumab: anti-PD-L1 antibody (Genentech/Roche) | 10 | 
Avelumab: anti-PD-L1 antibody (Merck Serono and Pfizer) | 9 | 
Cn1ncc(Cl)c1-c1cc(C(=O)N[C@H](CN)Cc2cccc(F)c2)sc1Cl [Afuresertib, N-{(1S)-2-amino-1-[(3-fluorophenyl)methyl]ethyl}-5-chloro-4-(4-chloro-1-methyl-1H-pyrazol-5-yl)-2-thiophenecarboxamide] |  | response of cell proliferation (cell viability) (MBT-2 cells): favorable response profile; pan-AKT kinase inhibitor potency (Akt (protein kinase B)): low-nanomolar
Pembrolizumab: listed among other approved anti-PD-L1 antibodies from Phase I studies | 5.3 | 
CC(=O)O[C@H]1C(=O)[C@@]2(C)[C@H]([C@H](OC(=O)c3ccccc3)[C@]3(O)C[C@H](OC(=O)[C@H](O)[C@@H](NC(=O)c4ccccc4)c4ccccc4)C(C)=C1C3(C)C)[C@]1(OC(C)=O)CO[C@@H]1C[C@@H]2O [paclitaxel, [(1S,2S,3R,4S,7R,9S,10S,12R,15S)-4,12-diacetyloxy-15-[(2R,3S)-3-benzamido-2-hydroxy-3-phenylpropanoyl]oxy-1,9-dihydroxy-10,14,17,17-tetramethyl-11-oxo-6-oxatetracyclo[11.3.1.0^3,10.0^4-7]heptadec-13-en-2-yl]benzoate] |  | ORR, paclitaxel monotherapy, LOTUS Study (mTNBC): 32%
